# Measurements published in patent publication US4988699A, “Substituted tetrahydrobenzothiazoles as dopaminergic agents” (Warner-Lambert Company, priority 1989, dated 1991).
# Read-outs that look alike come from different tables or passages of the source.
# Experiments:
# [1] = target: T1, haloperidol binding in a receptor assay (Bos taurus, UniProt P20288); assay: Inhibition of haloperidol binding
# T1 construct: from tissue; host or cells: calf brain (caudate/striatal) membranes, inferred from the cited method
# Protocol: (§1) The compounds of Formula I are valuable dopaminergic agents. […] Thus, the compounds of Formula I were tested for their ability to inhibit locomotor activity in mice according to the assay described by J. R. McLean, et al, Pharmacology, Biochemistry and Behavior, Volume 8, pages 97-99 (1978); for their ability to inhibit haloperidol binding in a receptor assay described by D. R. Burt, et al, Molecular Pharmacology, Volume 12, pages 800-812 (1976); and for their ability to inhibit dopamine synthesis in rats according to the protocol described by J. R. Walters and R. H. Roth, Naunyn--Schmiedeberg's Archives of Pharmacology, Volume 296, pages 5-14 (1976). The above test methods are incorporated herein by reference.
# [2] = tested on: locomotor activity in mice; assay: Inhibition of locomotor activity in mice; assay type: in vivo; settings: for ED50: Mus musculus, ip, read-out: Inhibition of Locomotor Activity in Mice ED50
# Protocol: as §1
# [3] = tested on: dopamine synthesis in rats; assay: Inhibition of dopamine synthesis in rats; assay type: in vivo; settings: IP
# Protocol: as §1
# T1 sequence (P20288 whole entry): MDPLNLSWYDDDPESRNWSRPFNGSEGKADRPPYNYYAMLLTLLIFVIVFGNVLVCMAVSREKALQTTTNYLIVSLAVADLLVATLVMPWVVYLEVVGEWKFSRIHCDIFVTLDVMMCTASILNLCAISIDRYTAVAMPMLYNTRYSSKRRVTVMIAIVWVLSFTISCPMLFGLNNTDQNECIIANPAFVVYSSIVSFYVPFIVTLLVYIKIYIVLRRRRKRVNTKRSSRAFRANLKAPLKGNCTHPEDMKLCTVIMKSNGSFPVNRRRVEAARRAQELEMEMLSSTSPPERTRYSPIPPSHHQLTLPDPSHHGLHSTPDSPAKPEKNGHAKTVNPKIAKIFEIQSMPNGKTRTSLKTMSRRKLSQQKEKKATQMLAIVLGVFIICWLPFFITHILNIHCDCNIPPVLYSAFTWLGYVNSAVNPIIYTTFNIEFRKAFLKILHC
smiles,measurement,setting,value
"Nc1nc2c(s1)CC(N1CCN(c3ccccn3)CC1)CC2 (single isomer, unassigned; (+)) [Example 3, (+)-4,5,6,7-Tetrahydro-6-[4-(2-pyridinyl)-1-piperazinyl]-2-benzothiazolamine]",IC50,[1],~800 nM
same,ED50,"[2]; mice, IP",9.9 mg/kg
same,Inhibition of Dopamine Synthesis in Rats,[3]; at 7.0 mg/kg,50%
"Nc1nc2c(s1)CC(CN1CCN(c3ccccn3)CC1)CC2 (racemic) [Example 7, (±)-4,5,6,7-Tetrahydro-6-[[4-(2-pyridinyl)-1-piperazinyl]methyl]-2-benzothiazolamine]",ED50,"[2]; mice, IP",7.2 mg/kg
same,Inhibition of Dopamine Synthesis in Rats,[3]; at 10 mg/kg,48%
"O=C(Nc1nc2c(s1)CC(N1CCN(c3ccccn3)CC1)CC2)c1ccccc1 (racemic) [Example 2, (±)-N-[4,5,6,7-Tetrahydro-6-[4-(2-pyridinyl)-1-piperazinyl]-2-benzothiazolyl]benzamide]",ED50,"[2]; mice, IP",3.7 mg/kg
same,Inhibition of Dopamine Synthesis in Rats,[3]; at 10 mg/kg,59%
"Nc1nc2c(s1)CC(CCN1CCN(c3ccccn3)CC1)CC2 (racemic) [Example 9, (±)-4,5,6,7-Tetrahydro-6-[2-[4-(2-pyridinyl)-1-piperazinyl]ethyl]-2-benzothiazolamine]",IC50,[1],105 nM
same,ED50,"[2]; mice, IP",0.21 mg/kg
same,Inhibition of Dopamine Synthesis in Rats,[3]; at 1.3 mg/kg,50%
"Nc1nc2c(s1)CC(CCN1CC=C(c3ccccc3)CC1)CC2 (racemic) [Example 10, (±)-6-[2-(3,6-Dihydro-4-phenyl-1(2H)-pyridinyl)ethyl]-4,5,6,7-tetrahydro-2-benzothiazolamine]",ED50,[2],0.4 mg/kg
"Nc1nc2c(s1)CC(N1CCN(c3ccccn3)CC1)CC2 (single isomer, unassigned; (-)) [Example 4, (-)-4,5,6,7-Tetrahydro-6-[4-(2-pyridinyl)-1-piperazinyl]-2-benzothiazolamine]",IC50,[1],~1500 nM
same,Inhibition of Locomotor Activity in Mice ED50,"[2]; mice, IP",7.4 mg/kg
same,Inhibition of Dopamine Synthesis in Rats,[3]; at 4.8 mg/kg,50%
"Nc1nc2c(s1)CC(N1CCN(c3ccccc3)CC1)CC2 (racemic) [Example 1b, (±)-4,5,6,7-Tetrahydro-6-(4-phenyl-1-piperazinyl)-2-benzothiazolamine]",ED50,"[2]; mice, IP",6.1 mg/kg
"c1ccc(N2CCN(CC3CCc4ncsc4C3)CC2)nc1 (racemic) [Example 5, (±)-4,5,6,7-tetrahydro-6-[[4-(2-pyridinyl)-1-piperazinyl]methyl]benzothiazole]",ED50,"[2]; mice, IP",7.4 mg/kg
"Nc1nc2c(s1)CC(CCN1CCN(c3ccccn3)CC1)CC2 (single isomer, unassigned; (-)) [Example 11a, (-)-4,5,6,7-Tetrahydro-6-[2-[4-(2-pyridinyl)-1-piperazinyl]ethyl]-2-benzothiazolamine]",ED50,"[2]; mice, IP",0.2 mg/kg
same,Inhibition of Dopamine Synthesis in Rats,[3]; at 0.2 mg/kg,50%
"Nc1nc2c(s1)CC(CN1CC=C(c3ccccc3)CC1)CC2 (racemic) [Example 8, (±)-6-[(3,6-Dihydro-4-phenyl-1(2H)-pyridinyl)methyl]-4,5,6,7-tetrahydro-2-benzothiazolamine]",ED50,[2],0.75 mg/kg
"Nc1nc2c(s1)CC(N1CC=C(c3ccccc3)CC1)CC2 (racemic) [Example 1a, (±)-6-(3,6-Dihydro-4-phenyl-1(2H)-pyridinyl)-4,5,6,7-tetrahydro-2-benzothiazolamine]",ED50,[2],1.5 mg/kg
same,Inhibition of Dopamine Synthesis in Rats,[3]; at 10 mg/kg,69%
"Nc1nc2c(s1)CC(N1CCN(c3ccccn3)CC1)CC2 (racemic) [Example 1, (±)-4,5,6,7-Tetrahydro-6-[4-(2-pyridinyl)-1-piperazinyl]-2-benzothiazolamine]",IC50,[1],876 nM
same,ED50,"[2]; mice, IP",6.6 mg/kg
same,Inhibition of Dopamine Synthesis in Rats,[3]; at 4.4 mg/kg,50%
"Nc1nc2c(s1)CC(N1CCN(c3ncccn3)CC1)CC2 (racemic) [Example 1c, (±)-4,5,6,7-Tetrahydro-6-[4-(2-pyrimidinyl)-1-piperazinyl]-2-benzothiazolamine]",ED50,"[2]; mice, IP",30 mg/kg
"Nc1nc2c(s1)CC(CCN1CCN(c3ccccn3)CC1)CC2 (single isomer, unassigned; (+)) [Example 11, (+)-4,5,6,7-Tetrahydro-6-[2-[4-(2-pyridinyl)-1-piperazinyl]ethyl]-2-benzothiazolamine]",Inhibition of Locomotor Activity in Mice ED50,"[2]; mice, IP",0.37 mg/kg
same,Inhibition of Dopamine Synthesis in Rats,[3]; at 0.8 mg/kg,50%
